# Experiments:
# [1] = molecular target: rat TAAR1 (Rattus norvegicus (Rat), UniProt Q923Y9); experiment: Radioligand binding assay on rat TAAR1; conditions: rat TAAR1, membranes of stably transfected HEK-293 cells; second value of the pair; read-out: Ki (μM) mouse/rat: rat
# Experimental: (§1) For the construction of expression plasmids the coding sequences of human, rat and mouse TAAR 1 were amplified from genomic DNA essentially as described by Lindemann et al.. The Expand High Fidelity PCR System (Roche Diagnostics) was used with 1.5 mM Mg^2+ and purified PCR products were cloned into pCR2.1-TOPO cloning vector (Invitrogen) following the instructions of the manufacturer. PCR products were subcloned into the pIRESneo2 vector (BD Clontech, Palo Alto, Calif.), and expression vectors were sequence verified before introduction in cell lines.
# (§2) For the generation of stably transfected cell lines HEK293 cells were transfected with the pIRESneo2 expression plasmids containing the TAAR coding sequences (described above) with Lipofectamine 2000 (Invitrogen) according to the instructions of the manufacturer, and 24 hrs post transfection the culture medium was supplemented with 1 mg/ml G418 (Sigma, Buchs, Switzerland). After a culture period of about 10 d clones were isolated, expanded and tested for responsiveness to trace amines (all compounds purchased from Sigma) with the cAMP Biotrak Enzyme immunoassay (EIA) System (Amersham) following the non-acetylation EIA procedure provided by the manufacturer.
# Radioligand Binding Assay on Rat TAAR1
# (§3) Membrane Preparation and Radioligand Binding.
# (§4) Cells were released from culture flasks using trypsin/EDTA, harvested, washed twice with ice-cold PBS (without Ca^2+ and Mg^2+), pelleted at 1′000 rpm for 5 min at 4° C., frozen and stored at −80° C. Frozen pellets were suspended in 20 ml HEPES-NaOH (20 mM, pH 7.4) containing 10 mM EDTA and homogenized with a Polytron (PT 6000, Kinematica) at 14′000 rpm for 20 s. The homogenate was centrifuged at 48′000×g for 30 min at 4° C. Subsequently, the supernatant was removed and discarded, and the pellet resuspended in 20 ml HEPES-NaOH (20 mM, pH 7.4) containing 0.1 mM EDTA using the Polytron (20 s at 14′000 rpm). This procedure was repeated and the final pellet resuspended in HEPES-NaOH containing 0.1 mM EDTA and homogenized using the Polytron. Typically, aliquots of 2 ml membrane portions were stored at −80° C. With each new membrane batch the dissociation constant (Kd) was determined via a saturation curve. […] Nonspecific binding was defined as the amount of ^3[H]—(S)-4-[(ethyl-phenyl-amino)-methyl]-4,5-dihydro-oxazol-2-ylamine bound in the presence of 10 μM unlabeled ligand. All compounds were tested at a broad range of concentrations (10 pM to 10 μM) in duplicates. […] The 96 deep well plates were incubated for 1 hr at 4° C. Incubations were terminated by rapid filtration through Unifilter-96 plates (Packard Instrument Company) and glass filters GF/C (Perkin Elmer) presoaked for 1 hr in polyethylenimine (0.3%) and washed 3 times with 1 ml of cold binding buffer. After addition of 45 μl of Microscint 40 (PerkinElmer) the Unifilter-96 plate was sealed and after 1 hr the radioactivity counted using a TopCount Microplate Scintillation Counter (Packard Instrument Company).
# [2] = molecular target: mouse TAAR1 (Mus musculus (Mouse), UniProt Q923Y8); experiment: Radioligand binding assay on mouse TAAR1; conditions: mouse TAAR1, membranes of stably transfected HEK-293 cells; first value of the pair; read-out: Ki (μM) mouse/rat: mouse
# Experimental: as §1, §2
# Radioligand Binding Assay on Mouse TAAR1
# as §3
# as §4, with “1,000” for “1′000”, “48,000×g” for “48′000×g”
# Chain of mouse TAAR1 (Q923Y8 whole entry): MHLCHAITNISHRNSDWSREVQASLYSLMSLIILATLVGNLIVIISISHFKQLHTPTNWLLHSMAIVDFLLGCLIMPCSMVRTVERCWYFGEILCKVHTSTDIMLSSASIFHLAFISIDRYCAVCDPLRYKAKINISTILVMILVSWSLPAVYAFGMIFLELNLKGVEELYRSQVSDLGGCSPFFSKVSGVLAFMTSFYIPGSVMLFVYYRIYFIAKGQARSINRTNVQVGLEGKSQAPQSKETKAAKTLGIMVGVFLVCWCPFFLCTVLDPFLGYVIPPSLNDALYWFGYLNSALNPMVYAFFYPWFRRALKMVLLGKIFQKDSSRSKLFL
# Chain of rat TAAR1 (Q923Y9 whole entry): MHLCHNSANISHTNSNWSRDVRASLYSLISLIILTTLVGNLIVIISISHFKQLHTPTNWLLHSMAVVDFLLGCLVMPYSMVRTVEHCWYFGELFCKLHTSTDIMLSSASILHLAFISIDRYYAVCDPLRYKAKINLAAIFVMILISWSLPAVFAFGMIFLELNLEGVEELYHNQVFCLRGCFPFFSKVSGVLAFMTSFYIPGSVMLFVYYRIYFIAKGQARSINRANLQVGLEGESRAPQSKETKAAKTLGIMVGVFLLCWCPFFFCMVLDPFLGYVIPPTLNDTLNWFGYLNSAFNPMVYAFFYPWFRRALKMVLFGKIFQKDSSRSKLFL
Structure (SMILES),Ki [1] [µM],Ki [2] [µM]
"Cc1cc(C(=O)Nc2ccc([C@H]3CNCCO3)nc2)nc(C(F)(F)F)n1 [Example 68, (R)-6-Methyl-N-(6-(morpholin-2-yl)pyridin-3-yl)-2-(trifluoromethyl)pyrimidine-4-carboxamide]",0.0469,0.0731
"CCCc1c(Cl)c(C(=O)Nc2ccc([C@H]3CNCCO3)nc2)nn1C [Example 48, 4-Chloro-1-methyl-N-[6-[(2R)-morpholin-2-yl]-3-pyridyl]-5-propyl-pyrazole-3-carboxamide]",1.37,0.0199
"CCc1n[nH]c(C(=O)Nc2ccc([C@H]3CNCCO3)nc2)c1Cl [Example 82, 4-Chloro-3-ethyl-N-[6-[(2R)-morpholin-2-yl]-3-pyridyl]-1H-pyrazole-5-carboxamide]",0.0925,0.0039
"O=C(Nc1ccc([C@H]2CNCCO2)nc1)c1cccc(C(F)(F)F)c1 [Example 55, N-[6-[(2R)-Morpholin-2-yl]-3-pyridyl]-3-(trifluoromethyl)benzamide]",0.0221,0.0064
"CCCCc1cc(C(=O)Nc2ccc([C@H]3CNCCO3)nc2)[nH]n1 [Example 97, 3-Butyl-N-[6-[(2R)-morpholin-2-yl]-3-pyridyl]-1H-pyrazole-5-carboxamide]",0.0387,0.0043
"Clc1ccc(Nc2ccc([C@@H]3CNCCO3)nc2)nc1 [Example 20, N-(5-Chloro-2-pyridyl)-6-[(2S)-morpholin-2-yl]pyridin-3-amine]",0.0751,0.0019
"CC(C)Cc1n[nH]c(C(=O)Nc2ccc([C@H]3CNCCO3)nc2)c1F [Example 95, 4-Fluoro-3-isobutyl-N-[6-[(2R)-morpholin-2-yl]-3-pyridyl]-1H-pyrazole-5-carboxamide]",0.0534,0.0113
"CC(C)c1cc(C(=O)Nc2ccc([C@H]3CNCCO3)nc2)n(CC(F)(F)F)n1 [Example 98, 5-Isopropyl-N-[6-[(2R)-morpholin-2-yl]-3-pyridyl]-2-(2,2,2-trifluoroethyl)pyrazole-3-carboxamide]",0.0442,0.24
"Fc1cc(Nc2ccc(C(F)(F)F)cn2)cnc1C1CNCCO1 (racemic) [Example 111, (RS)-5-Fluoro-6-morpholin-2-yl-N-[5-(trifluoromethyl)-2-pyridyl]pyridin-3-amine]",0.176,0.0128
"Brc1ccc(Nc2ccc(C3CNCCO3)nc2)cc1 (racemic) [Example 2, (RS)—N-(4-Bromophenyl)-6-morpholin-2-yl-pyridin-3-amine]",0.0437,0.0018
"O=C(Nc1ccc([C@H]2CNCCO2)nc1)c1[nH]nc(C(F)(F)F)c1Cl [Example 63, 4-Chloro-N-[6-[(2R)-morpholin-2-yl]-3-pyridyl]-3-(trifluoromethyl)-1H-pyrazole-5-carboxamide]",0.0613,0.0495
"Brc1ccc(Nc2ccc([C@@H]3CNCCO3)nc2)nc1 [Example 21, N-(5-Bromo-2-pyridyl)-6-[(2S)-morpholin-2-yl]pyridin-3-amine]",0.0324,0.002
"Cc1cc(NC(=O)c2ccnc(C(F)(F)F)c2)cnc1C1CNCCO1 (racemic) [Example 117, (RS)—N-(5-Methyl-6-morpholin-2-yl-3-pyridyl)-2-(trifluoromethyl)pyridine-4-carboxamide]",1.41,0.464
"Cc1cn[nH]c1C(=O)Nc1ccc([C@H]2CNCCO2)nc1 [Example 65, 4-Methyl-N-[6-[(2R)-morpholin-2-yl]-3-pyridyl]-1H-pyrazole-5-carboxamide]",4.47,0.344
"FC(F)(F)c1ccc(Nc2ccc([C@H]3CNCCO3)nc2)nc1 [Example 49, N-[6-[(2R)-Morpholin-2-yl]-3-pyridyl]-5-(trifluoromethyl)pyridin-2-amine]",0.066,0.0052
"FC(F)(F)c1ccnc(Nc2ccc([C@H]3CNCCO3)nc2)c1 [Example 28, 6-[(2R)-Morpholin-2-yl]-N-[4-(trifluoromethyl)-2-pyridyl]pyridin-3-amine]",0.606,0.11
"CC(C)c1cc(C(=O)Nc2ccc([C@H]3CNCCO3)nc2)[nH]n1 [Example 58, 3-Isopropyl-N-[6-[(2R)-morpholin-2-yl]-3-pyridyl]-1H-pyrazole-5-carboxamide]",0.685,0.0373
"O=C(Nc1cnc(C2CNCCO2)nc1)Nc1cccc(Cl)c1 (racemic) [Example 73, (RS)-1-(3-Chlorophenyl)-3-(2-morpholin-2-ylpyrimidin-5-yl)urea]",1.96,0.0059
"Cc1cn[nH]c1C(=O)Nc1ccc([C@@H]2CNCCO2)nc1 [Example 45, 4-Methyl-N-[6-[(2S)-morpholin-2-yl]-3-pyridyl]-1H-pyrazole-5-carboxamide]",1.13,0.162
"CCCCc1cc(C(=O)Nc2ccc([C@@H]3CNCCO3)nc2)[nH]n1 [Example 91, 3-Butyl-N-[6-[(2S)-morpholin-2-yl]-3-pyridyl]-1H-pyrazole-5-carboxamide]",0.0061,0.0031
"O=C(Nc1ccc(C2CNCCO2)nc1)c1ccc(Cl)cc1 (racemic) [Example 7, (RS)-4-Chloro-N-(6-morpholin-2-yl-3-pyridyl)benzamide]",0.0745,0.0038
"CCCc1n[nH]c(C(=O)Nc2ccc([C@@H]3CNCCO3)nc2)c1F [Example 79, 4-Fluoro-N-[6-[(2S)-morpholin-2-yl]-3-pyridyl]-3-propyl-1H-pyrazole-5-carboxamide]",0.0568,0.0074
"O=C(Nc1ccc([C@H]2CNCCO2)nc1)Nc1cccc(C(F)(F)F)c1 [Example 62, 1-[6-[(2R)-Morpholin-2-yl]-3-pyridyl]-3-[3-(trifluoromethyl)phenyl]urea]",0.0077,0.0035
"Clc1ccc(Nc2cnc(C3CNCCO3)c(Cl)c2)nc1 (racemic) [Example 102, (RS)-5-Chloro-N-(5-chloro-2-pyridyl)-6-morpholin-2-yl-pyridin-3-amine]",0.461,0.178
"FC(F)(F)c1ccc(Nc2ccc([C@@H]3CNCCO3)nc2)nc1 [Example 29, N-[6-[(2S)-Morpholin-2-yl]-3-pyridyl]-5-(trifluoromethyl)pyridin-2-amine]",0.0103,0.0035
"Cc1cc(C(=O)Nc2ccc([C@@H]3CNCCO3)nc2)nc(C(F)(F)F)n1 [Example 69, (S)-6-Methyl-N-(6-(morpholin-2-yl)pyridin-3-yl)-2-(trifluoromethyl)pyrimidine-4-carboxamide]",0.0512,0.0762
"O=C(Nc1ccc([C@@H]2CNCCO2)nc1)c1[nH]nc(C2CC2)c1F [Example 80, 3-Cyclopropyl-4-fluoro-N-[6-[(2S)-morpholin-2-yl]-3-pyridyl]-1H-pyrazole-5-carboxamide]",0.0856,0.0065

# Reference: US9840501B2, “Morpholin-pyridine derivatives” (Hoffmann-La Roche Inc., priority 2014, dated 2017)
